Assay results: patent publication EP0144170B1, “Biosynthesis of unnatural cephalosporins” (QUEEN'S UNIVERSITY AT KINGSTON, priority 1983, dated 1985)
Where “and” joins values, the source holds several entries; their conditions need not be identical. Equal entries are not always repeated.

System: Escherichia coli. ess.
Assay: Agar diffusion bioassay of diluted original antibiotic solutions (Example 9)
Format: cell-based
Set-up: unit not given here
Conditions: in duplicate, indicator organism Escherichia coli. ess.
Method: Example 2(a) above was repeated using SCV (15) as the starting material. [drawing 27] Antibiotic in reaction mixtures was estimated by the agar diffusion method. Cyclization reaction mixtures were bioassayed using Micrococcus luteus ATCC 9341 and Escherichia coli Ess as indicator organisms. Ring expansion reaction mixtures were bioassayed using E. coli Ess as indicator organism in agar plates supplemented with penicillinase at 2 x 10^5 units/ml.
One hour after the antibiotics were administered blood was collected from the rats into sterile citrate containing syringes. Blood samples were centrifuged to sediment red blood cells and 20 micro litre amounts of plasma were bioassayed in duplicate using Escherichia coli. ess. as the indicator organism. Original antibiotic solutions were also diluted and bioassayed in duplicate.

| SMILES | bioassay of original antibiotic solution (1 microgram per millilitre) | bioassay of original antibiotic solution (10 micrograms per millilitre) |
| --- | --- | --- |
| CC(=O)OCC1=C(C(=O)[O-])N2C(=O)[C@@H](NC(=O)CCCC(N)C(=O)O)[C@H]2SC1.[Na+] (stereo partly shown) [Na-Ceph-C, reference compound] | 8.8 | 23.5 |
| CC1=C(C(=O)O)N2C(=O)[C@@H](NC(=O)CSCC(N)C(=O)O)[C@H]2SC1 (stereo partly shown) [(17), Carboxymethylcysteinyl-Desacetoxycephalosporin C] | 17.5 and 17.0 | 33 |
